This note sets out measurements from paper PMC6935685 (Pharmacology Research & Perspectives, 2019).

“And” between values parts separate entries of the source, which are not always exact repeats. Equal values may be shown once. Read-outs that look alike come from different tables or passages of the source.

Assay [1] addresses T1, MT1 (Homo sapiens, UniProt P48039). The assay can be described thus: Overall functionality from the signaling pathway panel.
Assay [2] has as its target T2, human MT1 (hMT1) (Homo sapiens, UniProt P48039). The assay can be described thus: 2-[125I]-iodomelatonin competition binding, CHO-K1 membranes.
Assay [3] concerns the target T3, MT2 (Homo sapiens, UniProt P49286).
T3 sequence (P49286 1-362): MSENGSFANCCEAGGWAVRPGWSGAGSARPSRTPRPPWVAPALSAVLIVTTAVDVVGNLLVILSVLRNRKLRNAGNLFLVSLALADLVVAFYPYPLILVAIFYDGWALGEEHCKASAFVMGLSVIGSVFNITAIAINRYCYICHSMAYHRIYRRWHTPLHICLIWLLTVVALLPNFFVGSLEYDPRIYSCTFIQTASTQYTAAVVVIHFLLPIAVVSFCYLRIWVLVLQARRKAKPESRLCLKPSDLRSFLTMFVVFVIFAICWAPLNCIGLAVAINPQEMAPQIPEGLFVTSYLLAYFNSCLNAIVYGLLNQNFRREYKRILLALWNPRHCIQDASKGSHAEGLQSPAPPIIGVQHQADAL
The assay can be described thus: HTRF cAMP assay, agonist mode cAMP. The format is cell-based. The settings on record: for Emax, cAMP (+): hMT2, inhibition of cAMP production, normalization vs melatonin.

Assay [4] concerns the target T2, human MT1 (hMT1). The assay can be described thus: [35S]-GTPγS binding, agonist mode GTPγS. Format: biochemical. A general note: Binding of GTPγS marks nucleotide exchange on a G protein.
The target of assay [5] is T3, MT2. The assay can be described thus: Overall functionality from the signaling pathway panel.
In assay [6] the target is T3, MT2. The assay can be described thus: HTRF cAMP assay, antagonist mode cAMP. Format: cell-based.
In assay [7] the target is T4, human MT2 (hMT2) (Homo sapiens, UniProt P49286).
T4 sequence (P49286 1-362): T3 sequence (P49286 1-362)
The assay can be described thus: 2-[125I]-iodomelatonin competition binding, CHO-K1 membranes.

For assay [8], the target named is T3, MT2. The assay can be described thus: β-arrestin recruitment, PathHunter CHO-K1 cells. The format is cell-based.
The target of assay [9] is T3, MT2. The assay can be described thus: Receptor internalization, U2O-S cells. The settings on record: for receptor internalization: MT2. The format is cell-based.
Assay [10] concerns the target T4, human MT2 (hMT2). The assay can be described thus: [35S]-GTPγS binding, antagonist mode GTPγS. The format is biochemical.
For assay [11], the target named is T1, MT1. The assay can be described thus: Receptor internalization, DLD-1 cells. The format is cell-based.
Assay [12] concerns the target T1, MT1. The assay can be described thus: HTRF cAMP assay, agonist mode cAMP. The settings on record: inhibition of cAMP production, normalization vs melatonin. Format: cell-based. For orientation: In TR-FRET formats the signal depends on donor and acceptor labels being close together.
Assay [13] deals with T1, MT1. The assay can be described thus: β-arrestin recruitment, PathHunter CHO-K1 cells. The format is cell-based. For orientation: Recruitment of arrestin is a read-out of receptor activation apart from second messengers.
Assay [14] addresses T1, MT1. The assay can be described thus: Cellular dielectric spectroscopy. As to conditions: MT1. Format: cell-based.
Assay [15] concerns the target T4, human MT2 (hMT2). The assay can be described thus: [35S]-GTPγS binding, agonist mode GTPγS. Format: biochemical.
Assay [16] has as its target T2, human MT1 (hMT1). The assay can be described thus: [35S]-GTPγS binding, antagonist mode GTPγS. Format: biochemical.
The target in assay [17] is T3, MT2. The assay can be described thus: Cellular dielectric spectroscopy. Format: cell-based. As to conditions: MT2.
Setting [18] is: MT1 Affinity (pKi), against 2-[125I]iodomelatonin.

T1 sequence (P48039 whole entry): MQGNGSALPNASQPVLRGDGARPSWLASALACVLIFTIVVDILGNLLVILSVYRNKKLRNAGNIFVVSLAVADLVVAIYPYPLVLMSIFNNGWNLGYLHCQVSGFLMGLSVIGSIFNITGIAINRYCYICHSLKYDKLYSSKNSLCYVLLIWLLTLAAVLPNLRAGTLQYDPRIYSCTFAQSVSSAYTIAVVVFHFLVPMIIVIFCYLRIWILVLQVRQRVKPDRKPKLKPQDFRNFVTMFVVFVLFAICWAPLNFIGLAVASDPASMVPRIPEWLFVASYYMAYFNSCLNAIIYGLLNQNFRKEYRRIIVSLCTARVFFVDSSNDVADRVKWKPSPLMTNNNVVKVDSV
T2 sequence (P48039 whole entry): as above

In general, Ki refers to the equilibrium dissociation constant of an inhibitor or competing ligand from its target. As usually defined, the EC50 is the midpoint of the concentration-response curve. Regarding `CCC(=O)NC1Cc2ccccc2C(c2ccccc2)C1` (centres unmarked) [4P‐PDOT, 4‐phenyl‐2‐propionamidotetraline, reference compound], the “MT1 Our data (functionality)” value on MT1 [1] is listed as “partial ago”. The Ki was 141 nM at human MT1 (hMT1) [2] (setting [18]); ~100 nM at human MT1 (hMT1) [2] (affinity for MT1, order of magnitude given in text); 1.07 nM at human MT2 (hMT2) [7]. In addition, at MT2 [3], the “Emax, cAMP (+)” value was ~90% and 100%. For the same molecule, at MT2 [3] (pEC50, cAMP production inhibition, MT2, text), a half-maximal effect (EC50) was put at 2 nM. Besides, on human MT1 (hMT1) [4], the “induction of GTPγS binding” value is reported as “does not induce GTPγS binding”. In addition, on MT2 [5], the “MT2 Our data (functionality)” value is on record as “partial ago”. The “antagonism in cAMP assay” value on MT2 [6] (MT2) was “completely inactive”.
On to `COc1ccc2cccc(CCNC(C)=O)c2c1` [Agomelatine, N‐[2‐(7‐methoxynaphthalen‐1‐yl)ethyl]acetamide, reference compound], for which the results for the “MT1 Our data (functionality)” value at MT1 [1] and on MT1 [1] (listed as S20098) were “ago” and “agonists”, respectively. Besides, the “MT2 Our data (functionality)” value on MT2 [5] is “ago”; at MT2 [5] (listed as S20098) it was “agonists”.
For orientation: Emax means the size of the effect at its maximum, as opposed to the concentration needed. For the molecule `CC(=O)NCCc1c(Cc2ccccc2)[nH]c2ccccc12` [Luzindole, N‐acetyl‐2‐benzyltryptamine, reference compound], the “β-arrestin recruitment” value at MT2 [8] is “does not recruit”. On MT2 [9], the EC50 is ~10 nM and the “receptor internalization” value was “induces the internalization”. Also, the “MT1 Our data (functionality)” value at MT1 [1] is on record as “antago”. The molecule also gave a Ki on human MT1 (hMT1) [2] (setting [18]) of 257 nM. Also, at MT2 [3], the “Emax, cAMP (+)” value is given as 70%. Moreover, at MT2 [5], the “MT2 Our data (functionality)” value was “partial ago”. The maximal effect (Emax) at MT2 [6] (read-out: Emax, cAMP (−)) was 55%.
As for `COc1ccc2[nH]cc(CCNC(C)=O)c2c1` [Melatonin, N‐acetyl‐5‐methoxytryptamine, reference compound], the “MT1 Our data (functionality)” value at MT1 [1] is on record as “ago”.
With `O=C(NCCc1cccc2ccccc12)C1CCC1` [S20928, (N‐[2‐(1‐naphthyl)ethyl]cyclobutanecarboxamide)], the “inhibition of melatonin-induced GTPγS binding” value at human MT2 (hMT2) [10] is “slightly inhibits”; at human MT1 (hMT1) [16], “fully inhibits”. In addition, the “receptor internalization” value at MT2 [9] and on MT1 [11] was “does not induce internalization” throughout. The Ki at human MT1 (hMT1) [2] (setting [18]) is 170 nM. In addition, the entries for the “Emax, cAMP (+)” value on MT1 [12] and at MT2 [3] were “less than 25%” and 50%, respectively. In addition, the “β-arrestin recruitment” value on MT1 [13] was “capacity to recruit”. For the same molecule, the “cell shape shift, CellKey” value on MT1 [14] is “failed to elicit any significant shift in shape”. Moreover, on human MT2 (hMT2) [15], the “induction of GTPγS binding” value was “induces the binding of GTPγS”. Also, on MT2 [17], the “concentration of maximal effect (CellKey)” value is on record as ~100 nmol/L.
In the case of `COc1ccc2ncn(CCNC(C)=O)c2c1` [S21278, N‐[2‐(6‐methoxy‐benzimidazol‐1‐yl)ethyl]acetamide], on MT2 [9], the “receptor internalization” value is given as “not enough to elicit internalization”. Moreover, the “MT1 Our data (functionality)” value on MT1 [1] is recorded as “agonists”. Moreover, the Ki on human MT1 (hMT1) [2] (setting [18]) and on human MT2 (hMT2) [7] was 603 nM each time. Further, the “β-arrestin recruitment” value at MT1 [13] was “complete recruitment”. Moreover, the “MT2 Our data (functionality)” value on MT2 [5] is “agonists and ago”.
Regarding `CCc1ccc2scc(CCNC(C)=O)c2c1` [S22153, N‐[2‐(5‐ethylbenzothiophen‐3‐yl)ethyl]acetamide], at MT1 [1], the “MT1 Our data (functionality)” value is on record as “partial ago”. Further, the values for the inhibition constant (Ki) at human MT1 (hMT1) [2] (setting [18]) and at human MT2 (hMT2) [7] were 9.77 nM and 7.94 nM, respectively. In addition, the “MT2 Our data (functionality)” value on MT2 [5] is “ago”.
For the molecule `COc1cc2c(CCNC(C)=O)c(I)[nH]c2cc1[N+](=O)[O-]` [S27128, N‐[2‐(2‐iodo‐5‐methoxy‐6‐nitro‐1H‐indol‐3‐yl)ethyl]acetamide], the “receptor internalization” value at MT2 [9] and at MT1 [11] was “exhibited subsequent internalization” throughout. The “MT1 Our data (functionality)” value on MT1 [1] is “agonists and ago”. The affinity on human MT1 (hMT1) [2] (setting [18]) corresponds to a Ki of 1.2 nM. The “MT2 Our data (functionality)” value at MT2 [5] is “agonists and ago”.
With `COCC(CNC(C)=O)c1cccc2ccc(OC)cc12` (centres unmarked) [S73893, N‐[3‐methoxy‐2‐(7methoxy‐ 1‐naphthyl)propyl]acetamide], the “MT1 Our data (functionality)” value at MT1 [1] was “partial ago”. The Ki at human MT1 (hMT1) [2] (setting [18]) was 4.37 nM; on human MT2 (hMT2) [7] it was 7.76 nM.
Regarding `COc1ccc2cccc(C(CO)CNC(=O)CF)c2c1` (centres unmarked) [S75436, 2‐fluoro‐N‐[3‐hydroxy‐2‐(7‐methoxy‐1‐naphthyl)propyl]acetamide], the “MT1 Our data (functionality)” value at MT1 [1] is “agonists and ago”. Besides, the Ki was 9.12 nM on human MT1 (hMT1) [2] and 1.12 nM at human MT2 (hMT2) [7]. Besides, the “MT2 Our data (functionality)” value at MT2 [5] is “agonists and ago”.
As to `COc1ccc2c(c1)C(CNC(N)=O)Cc1ccccc1C2` (centres unmarked) [S77840, 1‐[(8‐methoxy‐10,11‐dihydro‐5H‐dibenzo[a,d]‐[7]annulen‐10‐yl)methyl]urea], the “receptor internalization” value at MT2 [9] and on MT1 [11] was “lack of capacity to provoke internalization” in each case. The “cell shape shift, CellKey” value at MT2 [17] was “failed to elicit any significant shift in shape”.
`COc1ccc2[nH]cc(CCNC(=O)CI)c2c1` [SD6, N‐[2‐(5‐methoxy‐1H‐indol‐3‐yl)ethyl] iodoacetamide]: the “MT1 Our data (functionality)” value on MT1 [1] is “agonists and ago”. Further, the “MT2 Our data (functionality)” value on MT2 [5] was “agonists and ago”.
With `COc1cc2c(CCNC(C)=O)c[nH]c2cc1I` [SD1881, N‐[2‐(6‐iodo‐5‐methoxy‐1H‐indol‐3‐yl)ethyl]acetamide], the “MT1 Our data (functionality)” value on MT1 [1] is “agonists and ago”. Moreover, the Ki on human MT1 (hMT1) [2] (setting [18]) is 1.45 nM; at human MT2 (hMT2) [7], 2.45 nM. The “MT2 Our data (functionality)” value at MT2 [5] is “agonists and ago”.
Consider `COc1ccc2[nH]cc(CCNC(C)=O)c2c1I` [SD1882, N‐[2‐(4‐iodo‐5‐methoxy‐1H‐indol‐3‐yl)ethyl] acetamide], for which the “MT1 Our data (functionality)” value at MT1 [1] is “partial ago”. The figures for the Ki at human MT1 (hMT1) [2] (setting [18]) and on human MT2 (hMT2) [7] were 17.4 nM and 10.2 nM, respectively. The “concentration of maximal effect (CellKey)” value on MT1 [14] was ~100 nmol/L. Further, the “MT2 Our data (functionality)” value at MT2 [5] is “ago”.
With `COc1cc(I)c2[nH]cc(CCNC(C)=O)c2c1` [SD1918, N‐[2‐(7‐iodo‐5‐methoxy‐1H‐indol‐3‐yl)ethyl]acetamide], at MT1 [1], the “MT1 Our data (functionality)” value was “partial ago”. Also, the figures for the inhibition constant (Ki) at human MT1 (hMT1) [2] (setting [18]) and on human MT2 (hMT2) [7] were 45.7 nM and 47.9 nM, respectively. Moreover, the “MT2 Our data (functionality)” value on MT2 [5] was “ago”.
Take “methoxyverapamil [D600, reference compound]”: the “β-arrestin recruitment” value at MT2 [8] and at MT1 [13] was “did not induce” in each case. Also, the “receptor internalization” value on MT2 [9] and on MT1 [11] was “did not induce” in each case. The “MT1 Our data (functionality)” value on MT1 [1] is reported as “antago”. Besides, the “MT1 Affinity (pKi)” value at human MT1 (hMT1) [2] (against 2-[125I]iodomelatonin) is 7 and 7.04. The “MT2 Affinity (pKi)” value at human MT2 (hMT2) [7] (against 2-[125I]iodomelatonin) was <6.
